Laboratory results published in patent US20080194636A1, “Enzyme Inhibitors and Uses Thereof” (Howard Florey Institute Of Experimental Physiology And …, priority 2004, published 2008).

Key:
[1] = molecular target: T1, insulin-regulated aminopeptidase (IRAP) (Homo sapiens, UniProt Q9UIQ6); assay: In vitro enzymatic assay for inhibitors of IRAP (hydrolysis of Leu-MCA, fluorescence); type: biochemical; conditions: recombinant full length human IRAP from transfected HEK293 cells; substrate Leu-MCA
T1 construct: containing the cDNA encoding the full length human RAP were utilised; made in house; host or cells: HEK293 cells transfected with pcDNA-3
Protocol: An in vitro enzymatic assay was used for screening for compounds which inhibit IRAP activity. The assay used an aminopeptidase substrate (leucine 4-methylcoumaryl-7-amide), a source of IRAP-containing material, and a candidate inhibitor.
IRAP-containing material was incubated with a synthetic aminopeptidase substrate, such as Leu-MCA (leucine 4-methylcoumaryl-7-amide), and a test substance. Inhibition of the rate of degradation of the synthetic substrate was taken as a measure of the inhibitory effect of the test substance.
As a source of recombinant IRAP, HEK293 cells transfected with a eukaryotic expression vector pcDNA-3 containing the cDNA encoding the full length human RAP were utilised. The assay system involved the measurement of the rate of hydrolysis of Leu-MCA by RAP. […] Candidate test compounds were added to the assay system, and their effects on the hydrolysis of Leu-MCA were taken to be direct indicators of their ability to inhibit IRAP activity.

3T3-L1 cells = conditions: 0.1 and 1 uM; basal and insulin (0.7 nM) stimulated; cited from earlier work
[2] = system: scopolamine-induced memory deficit; assay: Scopolamine-induced memory deficit model, inhibitory avoidance paradigm; type: in vivo, rat; conditions: rats, following scopolamine, retrieval trial 24 h later, vs scopolamine followed by vehicle
Protocol: The effect of IRAP inhibitor Compound 1 on scopolamine-induced amnesia was tested in the inhibitory avoidance paradigm.
The inhibitory avoidance box is made up of two chambers, a smaller light compartment and a larger darken compartment and the test comprises of two trials. The first training trial involves placing the rat in the light compartment facing the wall and as soon as it runs to the end of the dark compartment and turns around, an electric shock of 0.6 mA is administered for 2 s and the animal is left in the dark compartment for a total of 15 s before being returned to its home cage. After a 24 h interval, the animal is then tested again and the latency in entering the dark chamber is a measure of the ability of the animal to remember the aversive stimulus. To test for the effect of the IRAP inhibitors, the rats were implanted with a chronic indwelling cannula into the lateral ventricles 1 week before the behavioural experiments. On the day of the testing, 15 min before the training trial, the rats were injected with either […] scopolamine hydrobromide dissolved in 2 ul of 0.9% saline or 0.9% saline before being placed in the inhibitory avoidance box for the training trial. Immediately after the training trial, the rats were injected with either 0.2 or 2 nmol of compound 1 (from Example 1) dissolved in 2 ul of 10% DMSO or vehicle control. […]

T1 sequence (Q9UIQ6 whole entry): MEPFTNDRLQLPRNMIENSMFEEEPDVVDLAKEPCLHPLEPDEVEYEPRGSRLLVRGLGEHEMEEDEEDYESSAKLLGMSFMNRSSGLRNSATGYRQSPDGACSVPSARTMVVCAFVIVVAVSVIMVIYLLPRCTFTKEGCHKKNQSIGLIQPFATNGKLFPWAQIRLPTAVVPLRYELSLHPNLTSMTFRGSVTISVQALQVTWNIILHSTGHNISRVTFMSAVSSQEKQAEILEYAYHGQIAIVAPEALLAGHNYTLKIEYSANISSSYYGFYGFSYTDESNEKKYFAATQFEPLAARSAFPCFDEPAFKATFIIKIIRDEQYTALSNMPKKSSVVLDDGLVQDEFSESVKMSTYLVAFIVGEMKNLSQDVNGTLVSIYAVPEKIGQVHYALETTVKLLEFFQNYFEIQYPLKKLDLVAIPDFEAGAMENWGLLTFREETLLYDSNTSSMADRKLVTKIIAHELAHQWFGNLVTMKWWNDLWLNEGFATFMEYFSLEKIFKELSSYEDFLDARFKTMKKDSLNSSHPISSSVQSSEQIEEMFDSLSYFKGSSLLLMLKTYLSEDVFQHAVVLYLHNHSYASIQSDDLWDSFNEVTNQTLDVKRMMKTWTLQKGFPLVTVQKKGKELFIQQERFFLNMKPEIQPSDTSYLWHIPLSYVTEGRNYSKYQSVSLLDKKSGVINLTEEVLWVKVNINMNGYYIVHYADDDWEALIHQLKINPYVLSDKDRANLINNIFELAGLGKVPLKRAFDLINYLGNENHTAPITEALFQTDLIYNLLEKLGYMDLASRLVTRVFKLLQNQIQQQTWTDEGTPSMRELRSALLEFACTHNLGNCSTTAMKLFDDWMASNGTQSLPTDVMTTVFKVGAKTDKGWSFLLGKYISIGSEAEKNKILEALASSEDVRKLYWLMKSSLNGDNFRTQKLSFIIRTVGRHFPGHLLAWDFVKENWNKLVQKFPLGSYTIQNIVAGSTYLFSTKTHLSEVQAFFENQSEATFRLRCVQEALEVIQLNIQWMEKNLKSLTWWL

| SMILES | IC50 [1] | glucose uptake (3T3-L1 cells) | latency in entering the dark chamber ([2]; 0.2 nmol icv immediately after training trial) | latency in entering the dark chamber ([2]; 2 nmol icv immediately after training trial) |
| --- | --- | --- | --- | --- |
| COc1ccc(C2C(C#N)=C(N)Oc3cc(O)ccc32)cc1 (stereo not shown) [Compound 9] | 80 µM |  |  |  |
| COc1ccc(C2C(C#N)=C(N)Oc3cc(O)ccc32)cc1OC (stereo not shown) [Compound 3] | 45 µM |  |  |  |
| CCOC(=O)C1=C(N)Oc2cc(O)ccc2C1c1cccc(Cl)c1 (stereo not shown) [Compound 2] | 42 µM |  |  |  |
| CC[C@H](C)[C@H](NC(=O)[C@H](Cc1ccc(O)cc1)NC(=O)[C@@H](N)C(C)C)C(=O)N[C@@H](Cc1cnc[nH]1)C(=O)N1CCC[C@H]1C(=O)N[C@@H](Cc1ccccc1)C(=O)O [Ang IV] |  | enhance |  |  |
| CCOC(=O)C1=C(N)Oc2cc(O)ccc2C1c1cccnc1 (stereo not shown) [Compound 1] | 4 µM |  | increased latencies | increased latencies |
